One compound from patent publication US8354447B2, “mGLU receptors antagonists for treating disorders associated with mGLU receptors including addiction and depression” (The Scripps Research Institute, priority 2002, dated 2013) can be followed below.

Structures are written as SMILES.

One test has as its system male Wistar rats. The experiment in a line: Somatic signs of the nicotine withdrawal syndrome. The class given is in vivo, rat. The conditions noted are these: six hours after removal of the nicotine-containing minipumps. As to the method:
Rats were placed individually in transparent plastic cylindrical containers (30×38 cm) in which they could move freely. Subjects were habituated to the containers for 10 min each day over 3 days before the first test session. During the test sessions the rats were observed blindly by an experienced observer for 10 min and the frequency of the following signs was recorded based on a checklist of nicotine abstinence signs (Hildebrand et al. 1999; Watkins et al. 2000; Malin 2001): body shakes, chews, cheek tremors, escape attempts, eye blinks, foot licks, gasps, genital licks, head shakes, ptosis, scratches, teeth chattering, writhes and yawns. Multiple successive counts of any sign required a distinct pause between episodes. Ptosis, if present continuously, was only counted once per minute. For statistical analyses, the total number of somatic signs was defined as the sum of individual occurrences of the above mentioned withdrawal signs. Further, the categories of “abdominal constrictions” included gasps and writhes; “facial fasciculation” included cheek tremors, chews, and teeth chattering; and “miscellaneous other signs” included shakes, escape attempts, licks, scratches, and yawns.
Separate drug-naive rats were prepared with osmotic minipumps containing nicotine (3.16 mg/kg per day for 7 days) dissolved in saline. […] Further, this nicotine dose was selected to allow direct comparison of the effects of bupropion on somatic signs (present experiment 4) and on reward threshold elevations (experiment 3 described above) observed during nicotine withdrawal. To induce the somatic signs of nicotine withdrawal the minipumps were removed 6 days and 18 h after implantation. The behavioral observations were conducted 6, 12 and 24 h after the removal of the minipumps. The rats were injected with bupropion (0, 5, 10, 20, 40 mg/kg, IP; n=6-8), 30 min prior to the 12-h time point. The selection of the time points was based on the time-course of the expression of the somatic signs after the termination of nicotine exposure (Epping-Jordan et al. 1998; Harrison et al. 2001a; Semenova and Markou 2003; Skjei and Markou 2003).

The subject of a further test is Male DBA/2J mice. The experiment in a line: Intravenous nicotine self-administration in drug-naive mice. The test is classed as in vivo, mouse. The conditions noted are these: 0.048 μg/inf nicotine, saline pretreatment. The procedure:
Acute self-administration of nicotine was carried out using a previously described method (Semenova et al. 1995, 1999; Kuzmin et al. 1996a, 1997). The tails of the mice were fixed to the surface of the apparatus during the testing sessions to allow drug delivery; the fixing of the tail allowed the mice to move all of their four paws, head and entire body. […] The only cue associated with the delivery of the drug or vehicle infusion was the noise of the pump. Mice were tested either once or twice, with approximately one month between each test. The second test only occurred in a subset of the original set of mice (2-7 pairs of mice from each of the original groups). This was done to increase the number of subjects/condition, and involved randomly assigning and testing these mice under a different set of conditions than in the original test (i.e., different nicotine and/or MPEP dose).
Saline or one of four nicotine doses (0.016, 0.048, 0.16, 0.48 μg/inf) were made available to different groups of animals. Each group consisted of 9-17 pairs of animals, including 2-7 mice per group that had previously undergone one testing session at least one month previously (see above). Pre-treatment with MPEP (0, 5, 10, 20 mg/kg intraperitoneally) occurred 15 minutes prior to the initiation of the test session.
Data analyses were based on the comparison of both active and passive mouse nose-pokes in each pair, using the formula: R=log(AT/PT)−log(ABL/PBL), where (AT/PT) is the ratio of the total number of active versus passive mouse nose-pokes during the 30-min test, and (ABL/PBL) is the ratio of the total number of active versus passive mouse nose-pokes during the 10-min pre-test. […] Some data-points (9/237 pairs of mice) were excluded from the final analyses based on whether or not they lay within 2 standard deviations of the group mean for that specific condition. Nicotine self-administration data, obtained after saline pre-treatment, were analyzed using a one-way ANOVA with nicotine (4 levels) defined as the between-subjects factor. R-criterion data were analyzed using two-way ANOVAs with MPEP dose (4 levels) and nicotine dose (4 levels) defined as the between-subjects factors. Pre-planned R-criterion data analyses were performed using one-way ANOVAs for each available dose of self-administered nicotine and saline, with MPEP dose (4 levels) defined as the between-subject factor. Appropriate individual comparisons were performed using the Student-Newman-Keuls post hoc test. […] Body weights and pre-test nose-poke activity levels were analyzed with three-way ANOVAs (nicotine dose, MPEP dose and mouse, i.e. active/passive, defined as between-subjects factors).

As to `CN1CCCC1c1cccnc1` (single isomer, unassigned; (-)) [nicotine, (−)-1-methyl-2-(3-pyridyl) pyrrolidine], the “total somatic signs of abstinence” value in the test on male Wistar rats is given as “significant increase in the amount of total somatic signs of abstinence”. The “self-administration (R-criterion)” value in the test on Male DBA/2J mice was “significantly different from saline administration”.
